Measured values reported in publication PMC12429584, “5-Hydroxylysine Captures the Suicidally-Inactivated Conformational State of Lysine 5,6-Aminomutase” (International Journal of Molecular Sciences, 2025).

Assays:
[1] = target: T1, Lysine 5,6-aminomutase (5,6-LAM) (Acetoanaerobium sticklandii, UniProt E3PRJ4+E3PRJ5); assay: UV-visible and X-band EPR spectroscopy; format: binding; conditions: PLP and dAdoCbl holoenzyme, 100 mM NH4-EPPS pH 8.5, 37 °C; 2.5 mM (UV-vis) or 30 mM (EPR) 5-HL; active site, external aldimine with PLP; mechanism-based (suicide) inhibitor; stereoisomer mixture
T1 construct: gene kamD
T1 sequence (E3PRJ5 1-519 limits assumed): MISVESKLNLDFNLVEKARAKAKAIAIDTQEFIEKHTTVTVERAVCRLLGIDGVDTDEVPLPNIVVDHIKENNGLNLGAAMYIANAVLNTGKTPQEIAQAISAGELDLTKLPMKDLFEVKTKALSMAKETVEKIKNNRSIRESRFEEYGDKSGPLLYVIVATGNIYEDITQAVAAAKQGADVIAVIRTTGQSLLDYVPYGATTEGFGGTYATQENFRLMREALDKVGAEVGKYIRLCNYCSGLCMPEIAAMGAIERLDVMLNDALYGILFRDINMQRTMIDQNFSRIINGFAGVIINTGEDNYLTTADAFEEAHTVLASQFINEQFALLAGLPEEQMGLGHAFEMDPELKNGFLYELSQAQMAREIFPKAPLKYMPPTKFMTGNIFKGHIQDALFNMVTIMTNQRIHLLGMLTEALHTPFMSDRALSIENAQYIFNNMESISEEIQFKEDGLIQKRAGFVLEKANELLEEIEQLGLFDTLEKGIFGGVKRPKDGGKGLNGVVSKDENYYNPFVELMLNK
T1 sequence (E3PRJ4 1-262): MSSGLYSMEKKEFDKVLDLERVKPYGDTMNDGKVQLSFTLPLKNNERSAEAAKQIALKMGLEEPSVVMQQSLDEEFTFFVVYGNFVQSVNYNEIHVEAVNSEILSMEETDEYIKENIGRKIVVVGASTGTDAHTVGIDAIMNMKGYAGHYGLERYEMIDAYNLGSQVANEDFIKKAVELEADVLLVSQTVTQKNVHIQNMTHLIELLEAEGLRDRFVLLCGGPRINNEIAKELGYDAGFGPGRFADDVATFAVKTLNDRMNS

[2] = target: T1, Lysine 5,6-aminomutase (5,6-LAM); conditions: turnover to 2,5-DAH at 1 and 3 min; PLP and dAdoCbl as cofactors

NCC(O)CCC(N)C(=O)O (racemic) [5-HL, 5-hydroxylysine]
UV-visible and X-band EPR spectroscopy [1]: These spectral changes demonstrate that 5-HL mimics the initial steps of transaldimination and Co–C bond rupture

NCCCC[C@@H](N)C(=O)O [D-lysine]
thin-layer chromatography of product, ninhydrin [2]: bottom spot corresponding to D-lysine and the top spot corresponding to the product
